“Also recorded” adds a separate entry of the source.
What was measured:
Assay type in all cases: cell-based
[1] = system: B16F10, a mouse melanoma cell; test: Melanin production in B16F10 cells; details: mouse melanoma cell line; versus control group; FIG. 10
Protocol: (§1) Cells were cultivated according to the same process as in Experimental Example 6, and centrifuged (100×g) for 10 minutes to harvest the cells. In order to measure the production of melanin, 200 μg of the cell extract was added to 1 N NaOH (total 1 ml), allowed to stand at room temperature for 30 minutes, and then, absorbance was measured at 400 nm.
(§2) In order to measure the production of melanin, the cells were cultivated and harvested according to the same process as that of Experimental Example 6, and the production of melanin was measured according to the same process as that of Experimental Example 8.

[2] = system: Sk-mel-31, a human melanoma cell; test: Melanin production in Sk-mel-31 cells; details: human melanoma cell line; versus control group; FIG. 10
Protocol: as §1, §2

tyrosinase [3] = target: T1, tyrosinase (Homo sapiens, UniProt P14679); test: Activity of tyrosinase in Sk-mel-31 cells; details: 10 μg to 1 pg, versus control group, FIG. 7
T1 sequence (P14679 19-529): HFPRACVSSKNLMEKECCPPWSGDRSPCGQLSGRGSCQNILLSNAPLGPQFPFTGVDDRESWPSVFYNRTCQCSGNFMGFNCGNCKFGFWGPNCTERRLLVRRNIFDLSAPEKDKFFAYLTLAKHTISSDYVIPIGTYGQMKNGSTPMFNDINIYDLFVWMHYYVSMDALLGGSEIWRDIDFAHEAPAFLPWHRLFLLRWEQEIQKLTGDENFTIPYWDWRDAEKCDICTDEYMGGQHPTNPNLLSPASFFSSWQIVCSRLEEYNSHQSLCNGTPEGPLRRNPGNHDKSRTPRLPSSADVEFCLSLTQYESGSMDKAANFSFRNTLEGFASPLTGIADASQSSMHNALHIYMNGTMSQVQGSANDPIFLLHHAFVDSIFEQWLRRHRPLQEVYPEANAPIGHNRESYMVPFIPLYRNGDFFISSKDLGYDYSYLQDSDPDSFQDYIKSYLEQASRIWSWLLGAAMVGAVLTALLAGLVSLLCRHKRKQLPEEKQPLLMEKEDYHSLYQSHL
Protocol: (§3) In order to evaluate the effect of promoting black hair formation, the activity of tyrosinase was measured in Sk-mel-31, a human melanoma cell, and B16F10, a mouse melanoma cell. The cells were cultivated in an incubator at 37° C. (5% CO2 and 60% relative humidity) while maintaining a density of 1×10^6 cells/ml for Sk-mel-31 and 2×10^5 cells/ml for B16F10 in RPMI-1640 medium (containing 1% penicillin-streptomycin and 10% fetal bovine serum). The cells were stabilized in the incubator for 24 hours, and the culture medium containing FBS was replaced by FBS-free RPMI-1640. The cells were treated with mixed rare earth elements of 10 μg, 1 μg, 100 ng, 10 ng, 1 ng, 100 pg, […] and 1 pg, respectively, and individual rare earth elements of 10 ng. In order to measure the activity of tyrosinase, the cells were cultivated for a given time, centrifuged (100×g) for 10 minutes, and harvested. […] The cells were placed in an ice bath for one hour, and centrifuged with 40,000×g at 4° C. for 20 minutes to obtain a cell extract. 130 μl of 5 mM L-DOPA (L-3,4-dihydroxyphenylalanine) and 120 μl of 25 mM MBTH (3-methyl-2-benzothiazolinone hydrazone) were added to 250 μl of an analysis buffer containing 100 mM potassium phosphate (pH 7.1), 4% N,N-dimethylformamide and 0.1% (v/v) Triton X-100, and reacted in a thermostat at 37° C. for 5 minutes, and then, 100 μg of the cell extract was added thereto, and further reacted for 2 hours. Then, 500 μl of 1 M perchloric acid was added thereto and the mixture was centrifuged with 9,000×g at room temperature for 20 minutes. Then, the supernatant was taken and absorbance was measured at 505 nm.

[4] = system: Mouse embryo fibroblasts NIH 3T3; test: MTT cell proliferation assay in NIH 3T3 fibroblasts
Protocol: Mouse embryo fibroblasts NIH 3T3 were cultivated in an incubator at 37° C. ([…], 5% CO2 and 60% humidity) while maintaining a density of 2×10^6 or 4×10^6 cells/ml in Dulbecco's modified Eagle's media (DMEM) supplemented with 10% fetal bovine serum (FBS) and 1% penicillin-streptomycin. Cell proliferation was measured by using MTT [3-(3,5-dimethyl-thiazol-2-yl)-2,5-diphenyltetrazolium bromide] assay. For MTT assay, the cells were plated in a 96-well plate at 2×10^3 cells/ml per well, and treated with a culture medium supplemented with 10% FBS. The cells were stabilized in the incubator for 24 hours, the culture medium supplemented with FBS was replaced by FBS-free DMEM, and the cells were treated with mixed rare earth elements of 10 μg, 1 μg, 100 ng, 10 ng, 1 ng, 100 pg, 10 pg and 1 pg, respectively, and individual rare earth elements of 10 ng. Then, the cells were cultivated for a given time, 50 μl per well of MTT (2 mg/l ml sterilized distilled water) was added thereto, and the mixture was reacted for 4 hours. The reaction mixture was treated with DMSO (dimethyl sulfoxide) and shaken for 30 minutes. Absorbance was measured at 540 nm using an ELISA reader (550, Bio-rad).

tyrosinase [5] = test: Expression of tyrosinase in B16F10 cells by Western blotting; details: mouse melanoma cell line; versus control group; FIG. 9
Protocol: (§4) Cells were cultivated according to the same process as in Experimental Example 6, and centrifuged (100×g) for 10 minutes to harvest the cells. In order to measure the expression of tyrosinase by Western blotting, 100 μg of the cell extract was resolved on 10% SDS-PAGE, transferred to NC, and then, blocked with TBS containing 5% skim milk. Then, it was reacted with a primary antibody diluted to 1:2,500 (monoclonal anti-tyrosine hydroxylase clone Th-2) and a secondary antibody diluted to 1:5,000 (anti-mouse IgG), respectively, and washed with TBS containing 0.2% Tween-20, and then, photosensitized on an X-ray film using an ECL detection kit. Then, OD values were graphed using an image analysis program of LabWork™ (version 4.4.00.0).

tyrosinase [6] = target: T2, tyrosinase (Mus musculus, UniProt P11344); test: Activity of tyrosinase in B16F10 cells; details: 10 μg to 1 pg, versus control group, FIG. 8
T2 sequence (P11344 19-533): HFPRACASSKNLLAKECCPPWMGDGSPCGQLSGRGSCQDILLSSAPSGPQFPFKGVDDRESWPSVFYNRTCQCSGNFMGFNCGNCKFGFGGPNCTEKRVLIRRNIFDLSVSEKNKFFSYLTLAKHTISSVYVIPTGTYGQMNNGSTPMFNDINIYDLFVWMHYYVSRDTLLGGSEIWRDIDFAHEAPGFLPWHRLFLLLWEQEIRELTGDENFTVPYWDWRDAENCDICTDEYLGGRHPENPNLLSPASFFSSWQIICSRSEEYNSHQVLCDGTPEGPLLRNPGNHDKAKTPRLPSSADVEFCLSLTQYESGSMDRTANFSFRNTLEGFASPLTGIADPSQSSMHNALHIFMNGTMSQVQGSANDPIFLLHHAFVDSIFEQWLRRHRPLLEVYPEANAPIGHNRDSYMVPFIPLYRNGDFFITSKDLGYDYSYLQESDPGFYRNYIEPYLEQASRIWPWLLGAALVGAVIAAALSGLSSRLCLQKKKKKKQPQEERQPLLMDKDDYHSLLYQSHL
Protocol: as §3

tyrosinase [7] = test: Expression of tyrosinase in Sk-mel-31 cells by Western blotting; details: human melanoma cell line; versus control group; FIG. 9
Protocol: as §4

SMILES	melanin production [1]	melanin production [2]	tyrosinase activity (tyrosinase [3])	cell proliferation compared with the non-treated group ([4]; 10 μg to 1 pg, FIG. 1)	expression of tyrosinase (tyrosinase [5])	tyrosinase activity (tyrosinase [6])	expression of tyrosinase (tyrosinase [7])	cell proliferation compared with the non-treated group ([4]; each element of 10 ng, FIG. 2)
[Eu] [Eu, europium]	substantially the same effect	substantially the same effect	increased; also recorded: substantially the same effect as mixed rare earth elements	increased	substantially the same effect	increased; also recorded: substantially the same effect as mixed rare earth elements	substantially the same effect	
[Gd] [Gd, gadolinium]	relatively lower effect	relatively lower effect	increased; also recorded: relatively lower effect	increased	relatively lower effect	increased; also recorded: relatively lower effect	relatively lower effect	relatively inferior effect
[La] [La, lanthanum]	relatively lower effect	relatively lower effect	increased; also recorded: relatively lower effect	increased	relatively lower effect	increased; also recorded: relatively lower effect	relatively lower effect	relatively inferior effect
[Lu] [Lu, lutetium]	relatively lower effect	relatively lower effect	relatively lower effect		relatively lower effect	relatively lower effect	relatively lower effect	relatively inferior effect
[Nd] [Nd, neodymium]	relatively lower effect	relatively lower effect	relatively lower effect		relatively lower effect	relatively lower effect	relatively lower effect	relatively inferior effect
[Sm] [Sm, samarium]	relatively lower effect	relatively lower effect	relatively lower effect		relatively lower effect	relatively lower effect	relatively lower effect	relatively inferior effect

Reference: US8715714B2, “Uses of rare earth elements for hair improvement” (Micellbio Co., Ltd., priority 2006, dated 2014)
